The target in one assay is T1, FLAG-Tsa1 (Saccharomyces cerevisiae, UniProt P34760).
T1 sequence (P34760 2-196): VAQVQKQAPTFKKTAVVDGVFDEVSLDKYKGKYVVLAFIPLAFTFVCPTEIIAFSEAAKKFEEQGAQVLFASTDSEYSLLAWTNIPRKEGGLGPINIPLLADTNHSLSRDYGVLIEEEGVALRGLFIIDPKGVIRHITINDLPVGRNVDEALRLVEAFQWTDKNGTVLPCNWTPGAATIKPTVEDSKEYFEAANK
Nature of the assay: cross-linking in yeast cells, anti-FLAG immunoblot. The format is cell-based. The conditions noted are these: covalent; 1 h. (Immunoblotting shows a protein as a band on a membrane.)

For a further assay, the target named is T2, FLAG-Trx2 (Saccharomyces cerevisiae, UniProt P22803).
T2 sequence (P22803 2-104): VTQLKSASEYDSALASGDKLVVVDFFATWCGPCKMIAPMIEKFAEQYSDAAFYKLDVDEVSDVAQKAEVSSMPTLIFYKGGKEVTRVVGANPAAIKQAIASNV
Nature of the assay: cross-linking in yeast cells, anti-FLAG immunoblot. In kind it is cell-based. Conditions: covalent; 1 h.

The record followed here is paper PMC3637938 (Chemical research in toxicology, 2013).

In the case of `C1OC1C1CO1` (stereo not shown) [1,2,3,4-diepoxybutane], the “cross-linking in yeast cells, anti-FLAG immunoblot” value at FLAG-Tsa1 is “each of these bifunctional electrophiles promotes cross-linking of Trx2 and Tsa1 in yeast”; on FLAG-Trx2, “each of these bifunctional electrophiles promotes cross-linking of Trx2 and Tsa1 in yeast”.

Turning to `CCOC(=O)C#CC(=O)OCC` [diethyl acetylenedicarboxylate], the “cross-linking in yeast cells, anti-FLAG immunoblot” value on FLAG-Tsa1 was “each of these bifunctional electrophiles promotes cross-linking of Trx2 and Tsa1 in yeast”; at FLAG-Trx2, “each of these bifunctional electrophiles promotes cross-linking of Trx2 and Tsa1 in yeast”.
